# Marks after values point to notes of the source that are not given here.
# Columns and labels:
# [1] = DPPH scavenging procedure
# Experimental: (§1) All experiments were realized in 96-well microplates, and the absorbance measurements were carried out on a Multimode Plate Reader, EnSpire, PerkinElmer, Waltham (US) United States of America. […] The results were expressed as 50% inhibition (IC50) and absorbance at 0.5 (A0.5) concentrations that are able to inhibit/block/chelate 50% or reduce the absorbance to 0.5 of the radical, enzyme catalytic sites or the formation of metallic complexes/cations.
# Results were provided as IC50 values, and the I% were calculated using the above formula (*).
# Reducing power test = conditions: concentration at 0.50 absorbance
# Experimental: as §1
# Later, 50 μL of TCA (trichloroacetic acid) (10%) and 10 μL of ferric chloride (0.1%) were added before finally measuring the mixture’s absorbance at 700 nm.
# [2] = Superoxide alkaline DMSO test
# Experimental: as §1
# The superoxide radical was produced as described Kunchandy’s method: 30 µL of NBT (nitroblue tetrazolium) (1 mg/mL) and 40 μL of sample were added to 130 μL alkaline DMSO (1.0 mL DMSO, 5 mMNaOH, 100 µL H2O). The absorbance of the reaction mixture was measured at 560 nm, and results were provided as IC50 values.
# [3] = ABTS scavenging procedure
# Experimental: as §1
# The ABTS^•+ scavenging ability was performed spectrophotometrically according to the modified procedure of Re et al.. First, the ABTS^•+ was prepared as follows: 2 mM of ABTS was dissolved in H2O with 2.45 mM potassium persulfate (K2S2O8), and the mixture was conserved at ambient temperature for 16 h in obscurity. […] Thereafter, the microplate was incubated for 10 min before measuring the absorbance at 734 nm. The equation below (*) was used to calculate the inhibition percentage of ABTS radical, and results were presented as IC50 values. I% = ((Ac − As)/Ac) × 100 (*)(1)
# [4] = Cupric reducing antioxidant capacity (CUPRAC) assay; conditions: concentration at 0.50 absorbance
# Experimental: as §1
# The method described by Reference was used with no modifications. […] The result was given as A0.5 value.
# [5] = β-Carotene/linoleic acid bleaching test
# Experimental: as §1
# Proceeding as described by Marco [23], with minor changes: 0.5 mg of β-carotene, 1 mL of chloroform, 25 μL of linoleic acid, and 200 μL of Tween 40 were added, forming an emulsified mixture. Then, it was evaporated under vacuum, and 50 mL of hydrogen peroxide (30%) were added with vigorous shaking. The absorbance at 470 nm should give a value between (0.8–0.9).
# O-Phenanthroline assay = conditions: concentration at 0.50 absorbance
# Experimental: as §1
# Next, it was incubated for 20 min at 30 °C before measuring the absorbance at 510 nm. The result was given as A0.5 value.
# [6] = Galvinoxyl radical (GOR) scavenging assay
# Experimental: as §1
# The result was given as IC50 value.
# [7] = Silver nanoparticle-based method (SNP)
# Experimental: as §1
# The reduction of Ag^+ to spherical silver nanoparticles (SNPs) was developed by Özyürek et al.. […] The microplate was incubated for 30 min at 25 °C, and the absorbance was read at 423 nm. […]
# [8] = Hydroxyl radical scavenging assay
# Experimental: as §1
# It was evaluated according to the modified method of Smirnoff and Cumbes. […] The microplate was incubated for 30 min at 37 °C, and 36 μL H2O was added; immediately, the absorbance was measured at 510 nm. The result was given as IC50 value.
# urease = biological target: T1, urease (Canavalia ensiformis, UniProt P07374); assay type: biochemical, Canavalia ensiformis (Jack bean)
# T1 construct: purchased Sigma Aldrich
# T1 sequence (P07374 whole entry, looked up): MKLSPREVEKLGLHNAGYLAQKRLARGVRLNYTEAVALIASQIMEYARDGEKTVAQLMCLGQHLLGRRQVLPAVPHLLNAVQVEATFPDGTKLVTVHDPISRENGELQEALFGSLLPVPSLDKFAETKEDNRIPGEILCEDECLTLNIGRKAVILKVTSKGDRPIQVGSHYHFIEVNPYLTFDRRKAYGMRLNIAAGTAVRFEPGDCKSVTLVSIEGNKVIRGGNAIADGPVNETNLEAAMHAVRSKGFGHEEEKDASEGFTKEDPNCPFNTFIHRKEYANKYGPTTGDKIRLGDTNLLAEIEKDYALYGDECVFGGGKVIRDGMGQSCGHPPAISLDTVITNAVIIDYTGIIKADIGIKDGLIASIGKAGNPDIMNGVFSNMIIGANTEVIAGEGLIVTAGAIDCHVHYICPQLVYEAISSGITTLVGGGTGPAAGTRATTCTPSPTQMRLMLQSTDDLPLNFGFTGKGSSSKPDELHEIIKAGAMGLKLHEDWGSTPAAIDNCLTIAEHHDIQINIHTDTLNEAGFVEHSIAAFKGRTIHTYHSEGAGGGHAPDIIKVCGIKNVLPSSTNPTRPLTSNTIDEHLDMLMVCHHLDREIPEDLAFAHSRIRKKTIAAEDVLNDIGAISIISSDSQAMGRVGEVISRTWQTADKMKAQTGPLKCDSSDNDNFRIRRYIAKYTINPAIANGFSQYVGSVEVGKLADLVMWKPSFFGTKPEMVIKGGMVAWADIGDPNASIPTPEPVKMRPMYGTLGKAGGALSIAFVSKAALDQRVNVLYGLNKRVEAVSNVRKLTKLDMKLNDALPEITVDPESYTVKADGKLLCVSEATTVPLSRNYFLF
# Experimental: Ultrapure water was obtained by a Milli-Q system (Millipore, Bedford, MA, USA).
# All experiments were realized in 96-well microplates, and the absorbance measurements were carried out on a Multimode Plate Reader, EnSpire, PerkinElmer, Waltham (US) United States of America. […] The EamCE solution was prepared at seven different concentrations, (800, 400, 200, 100, 50, 25, 12.5 µg/mL) and every assay was realized in triplicate. The results were expressed as 50% inhibition (IC50) and absorbance at 0.5 (A0.5) concentrations that are able to inhibit/block/chelate 50% or reduce the absorbance to 0.5 of the radical, enzyme catalytic sites or the formation of metallic complexes/cations.
# Urease inhibitory capability was determined by measuring ammonia production using the indophenol method [35]. Briefly, the reaction mixture consisted of 25 μL of enzyme solution ((5 U/mL) (Jack bean urease)), 10 μL of the EamCE solution, and 50 μL of urea substrate solution, then it was incubated at 30 °C for 15 min. Then, 45 μL of phenol reagent (2 g of phenol (C6H5OH) in 25 mL H2O + 25 mg of Na2[Fe(CN)5NO],2H2O in 25 mL H2O) and 70 μL of basic reagent (0.7125 g of NaOH in 25 mL H2O + 1.175 mL of NaOCl in 25 mL H2O) were added later. After 50 min of incubation, the absorbance was measured at 630 nm, and result was given as IC50 value.
Molecule,DPPH (IC50) [1],Reducing Power (A0.5) (Reducing power test),DMSO Alcalin (IC50) [2],ABTS (IC50) [3],CUPRAC (A0.5) [4],Beta Carotene (IC50) [5],Phenonthroline (A0.5) (O-Phenanthroline assay),GOR (IC50) [6],SNP [7],Hydroxyl Radical (IC50) [8],Anti-Urease IC50 (urease)
Cc1c(C)c2c(c(C)c1O)CC[C@@](C)(CCC[C@H](C)CCC[C@H](C)CCCC(C)C)O2 [α-Tocopherol],13.02 ± 5.17 ^d µg/mL,34.93 ± 2.38 ^b µg/mL,˂3.125 µg/mL,,,,,,,,
COc1ccc(O)c(C(C)(C)C)c1 [BHA],6.14 ± 0.41 ^c µg/mL,,,1.81 ± 0.10 ^c µg/mL,5.35 ± 0.71 ^c µg/mL,0.91 ± 0.01 ^c µg/mL,0.93 ± 0.07 ^c µg/mL,3.32 ± 0.18 ^c µg/mL,,,
Tannic Acid,,5.39 ± 0.91 ^d µg/mL,<3.125 mg/L,,,,,,,,
Cc1c(C)c2c(c(C)c1O)CCC(C)(C(=O)O)O2 (stereo not shown) [Trolox],5.12 ± 0.21 ^e µg/mL,5.25 ± 0.20 ^e µg/mL,,3.21 ± 0.06 ^d µg/mL,8.69 ± 0.14 ^e µg/mL,,5.21 ± 0.27 ^e µg/mL,4.31 ± 0.05 ^e µg/mL,34.17 ± 1.23 ^c µg/mL,,
O=C1O[C@H]([C@@H](O)CO)C(O)=C1O [Ascorbic Acid],,6.77 ± 1.15 ^c µg/mL,,,8.31 ± 0.15 ^d µg/mL,,3.08 ± 0.02 ^d µg/mL,5.02 ± 0.01 ^d µg/mL,7.14 ± 0.05 ^b µg/mL,32.33 ± 1.17 ^b µg/mL,
Cc1cc(C(C)(C)C)c(O)c(C(C)(C)C)c1 [BHT],12.99 ± 0.41 ^b µg/mL,,,1.29 ± 0.30 ^b µg/mL,8.97 ± 3.94 ^b µg/mL,1.05 ± 0.03 ^b µg/mL,2.24 ± 0.17 ^b µg/mL,5.38 ± 0.06 ^b µg/mL,,,
NC(N)=S [Thiourea],,,,,,,,,,,11.57 ± 0.68 ^b µg/mL

# Source: article PMC8774970 (Foods, 2022)
